Laboratory results published in the NIST ThermoML archive (doi:10.1021/acs.jced.6b00483).
Where “and” joins values, the source holds several entries; their conditions need not be identical. Identical values can stand only once.

Key:
[1] = Molar enthalpy of transition or fusion; conditions: Crystal 3; DSC
[2] = DSC
[3] = molar heat capacity at constant pressure; conditions: 101.33 kPa, Crystal 3, DSC

NC(N)=C([N+](=O)[O-])[N+](=O)[O-] [1,1-diamino-2,2-dinitroethene]
Conditions | Molar enthalpy of transition or fusion
[1] | 0.623 kcal/mol and 0.676 kcal/mol

Conditions | Triple point temperature [K] | molar heat capacity at constant pressure [J/K/mol]
[2], Crystal 2 | 439.2 | –
[2], Crystal 3 | 393.7 | –
[3], 345 K | – | 191.17
[3], 350 K | – | 193.24
[3], 355 K | – | 195.17
[3], 360 K | – | 197.24
[3], 365 K | – | 199.16
[3], 370 K | – | 201.24
[3], 375 K | – | 203.16
[3], 380 K | – | 205.09
[3], 385 K | – | 207.16
